According to ChEMBL document CHEMBL4831548, “Sesquiterpene Lactones from Sigesbeckia glabrescens Possessing Potent Anti-inflammatory Activity by Directly Binding to IKKα/β” (J Nat Prod, 2021):
Calls of active or inactive are those of the source. The calls are words filed in the database; no cut-off is given here.

What was measured:
RAW264.7 [1] = assay: Inhibition of LPS-induced NO production in mouse RAW264.7 cells preincubated for 2 hrs followed by LPS stimulation for 24 hrs by Griess reagent based assay; type: functional, cell-based
RAW264.7 [2] = assay: Cytotoxicity against mouse RAW264.7 cells assessed as effect on cell viability up to 20 uM measured after 24 hrs by CCK8 assay; type: cell-based; conditions: raw264.7, 24 h
RAW264.7 [3] = assay: Inhibition of LPS-induced PGE2 production in mouse RAW264.7 cells preincubated for 2 hrs followed by LPS stimulation and measured after 24 hrs by ELISA assay; type: functional, cell-based; conditions: dose 0.75-3 µM, time 26.0 hrs
RAW264.7 [4] = assay: Inhibition of LPS-induced iNOS protein expression in mouse RAW264.7 cells at 0.75 to 3 uM preincubated for 2 hrs followed by LPS stimulation for 24 hrs by Western blot analysis; type: functional, cell-based; conditions: dose 0.75-3 µM, time 26.0 hrs
RAW264.7 [5] = assay: Inhibition of LPS-induced COX2 protein expression in mouse RAW264.7 cells at 0.75 to 3 uM preincubated for 2 hrs followed by LPS stimulation for 24 hrs by Western blot analysis; type: functional, cell-based; conditions: dose 0.75-3 µM, time 26.0 hrs
RAW264.7 [6] = assay: Anti-inflammatory activity against LPS-stimulated mouse RAW264.7 cells assessed as decrease in IL-1 beta production at 0.75 to 3 uM preincubated for 2 hrs followed by LPS stimulation and measured after 24 hrs by ELISA assay; type: functional, cell-based; conditions: dose 0.75-3 µM, time 26.0 hrs
RAW264.7 [7] = assay: Anti-inflammatory activity against LPS-stimulated mouse RAW264.7 cells assessed as decrease in IL-6 production at 0.75 to 3 uM preincubated for 2 hrs followed by LPS stimulation and measured after 24 hrs by ELISA assay; type: functional, cell-based; conditions: dose 0.75-3 µM, time 26.0 hrs
RAW264.7 [8] = assay: Anti-inflammatory activity against LPS-stimulated mouse RAW264.7 cells assessed as decrease in TNF-alpha production at 0.75 to 3 uM preincubated for 2 hrs followed by LPS stimulation and measured after 24 hrs by ELISA assay; type: functional, cell-based; conditions: dose 0.75-3 µM, time 26.0 hrs
[9] = molecular target: T1, Inhibitor of nuclear factor kappa-B kinase subunit alpha/beta (Mus musculus) (UniProt Q60680+O88351); assay: Inhibition of IKKalpha/beta in LPS-stimulated mouse RAW264.7 cells assessed as decrease in IkappaB degradation at 3 uM preincubated for 2 hrs followed by LPS stimulation for 10 mins by immunoblotting assay; conditions: time 130.0 min
[10] = molecular target: T1, Inhibitor of nuclear factor kappa-B kinase subunit alpha/beta (Mus musculus); assay: Inhibition of IKKalpha/beta in LPS-stimulated mouse RAW264.7 cells assessed as inhibition of NFkB p65 nuclear translocation at 3 uM preincubated for 2 hrs followed by LPS stimulation for 30 mins by immunoblotting assay; conditions: time 150.0 min
[11] = molecular target: c-Jun N-terminal kinase (Mus musculus) (UniProt Q91Y86+Q9WTU6+Q61831); assay: Inhibition of JNK phosphorylation in LPS-induced mouse RAW264.7 cells at 0.75 to 3 uM preincubated for 2 hrs followed by LPS stimulation and measured after 30 mins by immunoblotting assay; conditions: dose 0.75-3 µM, time 150.0 min
RAW264.7 [12] = assay: Inhibition of ERK phosphorylation in LPS-induced mouse RAW264.7 cells at 0.75 to 3 uM preincubated for 2 hrs followed by LPS stimulation and measured after 30 mins by immunoblotting assay; conditions: dose 0.75-3 µM, time 150.0 min
[13] = molecular target: MAP kinase p38 (Mus musculus) (UniProt P47811+O08911+Q9WUI1+Q9Z1B7); assay: Inhibition of p38 MAPK phosphorylation in LPS-induced mouse RAW264.7 cells at 0.75 to 3 uM preincubated for 2 hrs followed by LPS stimulation and measured after 30 mins by immunoblotting assay; conditions: dose 0.75-3 µM, time 150.0 min
[14] = molecular target: Inhibitor of NF-kappa-B kinase alpha/beta (Homo sapiens) (UniProt O14920+O15111); assay: Inhibition of IKKalpha/beta in human HEK293T cells assessed as reduction in thermal stability at 50 uM incubated for 30 mins followed by heating at temperature between 58 to 60 degC for 3 mins by CETSA analysis; type: cell-based; conditions: time 33.0 min
[15] = molecular target: T1, Inhibitor of nuclear factor kappa-B kinase subunit alpha/beta (Mus musculus); assay: Inhibition of IKKalpha/beta phosphorylation in LPS-induced mouse RAW264.7 cells incubated for 2 hrs followed by LPS stimulation and measured after 5 mins by immunoblotting assay; conditions: dose 0.75-3 µM, time 125.0 min
RAW264.7 [16] = assay: Inhibition of LPS-induced NO production in mouse RAW264.7 cells at 3 uM preincubated with DTT for 30 mins and later incubated with cells for 2 hrs followed by LPS stimulation for 24 hrs by Griess-reagent based assay; type: functional, cell-based; conditions: time 1590.0 min
[17] = molecular target: T1, Inhibitor of nuclear factor kappa-B kinase subunit alpha/beta (Mus musculus); assay: Inhibition of IKKalpha/beta in LPS-stimulated mouse RAW264.7 cells assessed as inhibition of IkappaB alpha phosphorylation at 3 uM preincubated with DTT for 30 mins and later incubated with cells for 2 hrs followed by LPS stimulation for 5 mins by immunoblot anlaysis; conditions: time 155.0 min
[18] = molecular target: T1, Inhibitor of nuclear factor kappa-B kinase subunit alpha/beta (Mus musculus); assay: Inhibition of IKKalpha/beta in LPS-stimulated mouse RAW264.7 cells assessed as inhibition of IkappaB alpha degradation at 3 uM preincubated with DTT for 30 mins and later incubated with cells for 2 hrs followed by LPS stimulation for 10 mins by immunoblot anlaysis; conditions: time 160.0 min
[19] = molecular target: T1, Inhibitor of nuclear factor kappa-B kinase subunit alpha/beta (Mus musculus); assay: Inhibition of IKKalpha/beta in LPS-stimulated mouse RAW264.7 cells assessed as inhibition of IkappaB alpha phosphorylation preincubated for 2 hrs followed by LPS stimulation for 5 mins by immunoblot anlaysis; conditions: dose 0.75-3 µM, time 125.0 min
[20] = Covalent binding affinity to dithiothreitol assessed as compound-DTT adduct formation at 50 uM incubated for 30 mins by UPLC-MS analysis

Chain of c-Jun N-terminal kinase (Mus musculus) (Q61831 whole entry, looked up): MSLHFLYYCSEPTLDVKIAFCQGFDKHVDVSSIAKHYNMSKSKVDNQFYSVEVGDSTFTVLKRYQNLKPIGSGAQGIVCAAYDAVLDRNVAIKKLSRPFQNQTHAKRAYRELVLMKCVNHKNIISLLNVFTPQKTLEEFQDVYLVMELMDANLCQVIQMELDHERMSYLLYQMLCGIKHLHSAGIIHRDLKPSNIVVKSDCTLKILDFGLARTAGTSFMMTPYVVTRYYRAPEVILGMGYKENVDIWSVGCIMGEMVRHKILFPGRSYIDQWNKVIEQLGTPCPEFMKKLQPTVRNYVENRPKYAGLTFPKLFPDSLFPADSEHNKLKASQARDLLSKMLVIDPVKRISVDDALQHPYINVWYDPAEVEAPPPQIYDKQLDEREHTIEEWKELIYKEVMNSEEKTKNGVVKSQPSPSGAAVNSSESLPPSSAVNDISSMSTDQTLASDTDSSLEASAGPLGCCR
Chain of c-Jun N-terminal kinase (Mus musculus) (Q91Y86 whole entry, looked up): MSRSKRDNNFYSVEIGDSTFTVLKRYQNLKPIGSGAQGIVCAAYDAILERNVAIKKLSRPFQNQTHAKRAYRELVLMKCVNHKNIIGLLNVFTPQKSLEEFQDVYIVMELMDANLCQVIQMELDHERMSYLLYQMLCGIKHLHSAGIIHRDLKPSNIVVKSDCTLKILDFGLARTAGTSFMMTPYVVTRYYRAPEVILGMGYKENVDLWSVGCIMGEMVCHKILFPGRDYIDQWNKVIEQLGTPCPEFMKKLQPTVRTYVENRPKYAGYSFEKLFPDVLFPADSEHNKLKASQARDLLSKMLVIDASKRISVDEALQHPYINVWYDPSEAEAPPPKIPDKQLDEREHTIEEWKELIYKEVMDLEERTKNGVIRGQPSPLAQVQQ
Chain of c-Jun N-terminal kinase (Mus musculus) (Q9WTU6 whole entry, looked up): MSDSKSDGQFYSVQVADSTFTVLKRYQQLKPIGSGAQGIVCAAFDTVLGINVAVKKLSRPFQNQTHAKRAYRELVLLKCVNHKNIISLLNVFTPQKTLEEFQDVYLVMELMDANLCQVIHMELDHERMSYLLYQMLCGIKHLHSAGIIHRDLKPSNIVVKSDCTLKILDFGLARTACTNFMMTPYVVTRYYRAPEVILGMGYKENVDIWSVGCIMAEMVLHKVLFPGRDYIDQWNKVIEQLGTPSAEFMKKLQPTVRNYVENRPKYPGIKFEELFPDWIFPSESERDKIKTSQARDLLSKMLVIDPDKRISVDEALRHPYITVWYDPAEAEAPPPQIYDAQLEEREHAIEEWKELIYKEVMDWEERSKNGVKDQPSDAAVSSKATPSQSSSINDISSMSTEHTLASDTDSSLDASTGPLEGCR

## C=C1C(=O)O[C@@H]2C[C@H](COC(=O)/C(C)=C\C)CC/C=C(\CO)C[C@@H](O)[C@@H]12
RAW264.7 [1]
  IC50: 1.4 µM
RAW264.7 [1]; time 26.0 hrs
  inhibition: Dose-Dependent Effect
RAW264.7 [2]
  Activity: Non-Toxic
RAW264.7 [3]
  inhibition: Dose-Dependent Effect
RAW264.7 [4]
  inhibition: Active
RAW264.7 [5]
  inhibition: Active
RAW264.7 [6]
  Activity: Active
RAW264.7 [7]
  Activity: Active
RAW264.7 [8]
  Activity: Active
[9]
  inhibition: Active
[10]
  inhibition: Active
[11]
  inhibition: inactive
RAW264.7 [12]
  inhibition: inactive
[13]
  inhibition: inactive
[14]
  inhibition: Active
[15]
  inhibition: Dose-Dependent Effect
RAW264.7 [16]
  inhibition: inactive
[17]
  inhibition: inactive
[18]
  inhibition: inactive
[19]
  inhibition: Dose-Dependent Effect
[20]
  Activity: Active

## C=C1C(=O)O[C@@H]2/C=C(\CO)CC/C=C(\C=O)[C@H](OC)[C@@H](OC(=O)/C(C)=C\C)[C@@H]12
RAW264.7 [1]
  IC50: 7.9 µM
RAW264.7 [2]
  Activity: Non-Toxic

## C=C1C(=O)O[C@H]2[C@H]1[C@H](OC(=O)/C(C)=C/C)[C@@H](OC)C(=O)[C@@H]1CC[C@@](O)(CO)[C@H]21
RAW264.7 [1]
  IC50: > 20 µM
RAW264.7 [2]
  Activity: Non-Toxic

## C=C(C)C(=O)O[C@@H]1C/C(CO)=C/CC[C@@H](CO)C[C@H]2OC(=O)C(=C)[C@H]12
RAW264.7 [1]
  IC50: 2.7 µM
RAW264.7 [2]
  Activity: Non-Toxic

## C=C1C(=O)O[C@@H]2/C=C(\CO)CC/C=C(\C=O)[C@H](O)[C@@H](OC(=O)/C(C)=C\C)[C@@H]12
RAW264.7 [1]
  IC50: 9.1 µM
RAW264.7 [2]
  Activity: Non-Toxic

## C=C1C(=O)O[C@@H]2/C=C(\CO)CC/C=C(\C=O)[C@H](OC)[C@@H](OC(=O)C(C)C)[C@@H]12
RAW264.7 [1]
  IC50: > 20 µM
RAW264.7 [2]
  Activity: Non-Toxic

## C=C1C(=O)O[C@@H]2C[C@H](CO)CC/C=C(\CO)C[C@@H](OC(=O)/C(C)=C/C)[C@@H]12
RAW264.7 [1]
  IC50: 6.9 µM
RAW264.7 [2]
  Activity: Non-Toxic

## C=C1C(=O)O[C@@H]2/C=C3/CC/C=C(\[C@H](O)OC3)[C@H](OC)[C@@H](OC(=O)/C(C)=C\C)[C@@H]12
RAW264.7 [1]
  IC50: > 20 µM
RAW264.7 [2]
  Activity: Non-Toxic

## C=C1C(=O)O[C@@H]2C[C@H](CO)CC/C=C(\COC(=O)C(C)C)C[C@@H](O)[C@@H]12
RAW264.7 [1]
  IC50: > 20 µM
RAW264.7 [2]
  Activity: Non-Toxic

## C=C1C(=O)O[C@@H]2C[C@H](CO)CCC=C(CO)C[C@@H](OC(=O)C(C)C)[C@@H]12
RAW264.7 [1]
  IC50: 3.4 µM
RAW264.7 [2]
  Activity: Non-Toxic

## C=C1C(=O)O[C@@H]2/C=C(\CO)CC/C=C(\C=O)[C@H](OC(C)=O)[C@@H](OC(=O)/C(C)=C/C)[C@@H]12
RAW264.7 [1]
  IC50: > 20 µM
RAW264.7 [2]
  Activity: Non-Toxic

## C=C1C(=O)O[C@H]2[C@H]1[C@H](OC(=O)/C(C)=C\C)[C@@H](OC)C(=O)[C@@H]1CC[C@@](O)(CO)[C@H]21
RAW264.7 [1]
  IC50: > 20 µM
RAW264.7 [2]
  Activity: Non-Toxic

## C=C(C)C(=O)O[C@@H]1C=C(C=O)[C@@H]2CC[C@@](O)(CO)[C@@H]2[C@H]2OC(=O)C(=C)[C@@H]21
RAW264.7 [1]
  IC50: 15.4 µM
RAW264.7 [2]
  Activity: Non-Toxic
